Values joined by “and” are separate entries in the source; they are usually repeats but may differ in a detail not shown here. Identical values can stand only once. “Also recorded” adds a separate entry of the source.
Tests used:
tumor deposits = test: In-human study of ^68Ga-CDI: tumor uptake; format: in vivo
Description: Eight serial PET scans were then performed from skull vertex to the proximal femora. The first PET scan commenced immediately following administration of ^68Ga-CDI, with subsequent scans commencing at approximately 7, 17, 29, 47, 64, 120 and 180 minutes after administration (+/−5 minutes). All scans were performed on a Phillips ingenuity TF 128 PET CT scanner (Philips Medical Systems, Cleveland) with acquisition times increasing for each subsequent scan ranging from 30 s/bed (immediately after administration) to 240 s/bed (at 180 minutes after administration) to compensate for excretion and decay. All PET scans were reconstructed using CT attenuation correction with a time of flight, list-mode, blob-based, ordered subsets maximum likelihood expectation maximization algorithm (BLOB-OS-TF) (reconstructed voxel size 4×4×4 mm).
For analysis of uptake and biodistribution in normal tissues and organs, spherical volumes of interest (VOIs) were drawn on the Digital Imaging and Communications in Medicine (DICOM) ^68Ga-CDI-PET emission data on a workstation (IntelliSpace Portal, V5.0.2.60000, Philips Medical System, Best, The Netherlands) by an experienced nuclear medicine physician over clearly tumor-free regions of organs. VOI diameter varied depending on organ size but where possible was at least 10 mm. Spherical VOIs were also drawn over all tumor deposits greater than 10 mm in diameter. These VOIs were replicated across all time points and the mean, maximum and standard deviation of the activity concentration (Bq/mL) of all VOIs at each time point was recorded. Activity concentration was used to calculate the % injected activity (% IA) for organs and tissues based on the masses of source organs for standard phantom male and female models (Stabin & Siegel, Health Phys. 2003; 85:294-310). Mean, maximum and standard deviation of the SUV for each VOI was also a calculated from the activity concentration using the slope intercept stored with the DICOM CDI PET emission data.

[1] = Human radiation dosimetry estimated from rat biodistribution (OLINDA/EXM); format: in vivo, human (standard adult male); conditions: from rat data
Description: For the voiding bladder model it was assumed that patients would void 1 hour following administration.

Human studies: safety = format: in vivo; conditions: patients 1-4, 200-207 MBq
From the text: patient with squamous cell carcinoma of the oesophagus • 2. Person with metastatic ovarian carcinoma • 3. Person with metastatic cutaneous squamous cell carcinoma • 4. Person with invasive ductal breast carcinoma.

In the case of `O=C(O)CNC(=O)[C@H](CSCC(=O)Nc1ccc([As](O)O)cc1)NC(=O)CC[C@H](NC(=O)CCC1C(=O)[O][68Ga]2[O]C(=O)CN3CCN(CCN1CC3)CC(=O)[O]2)C(=O)O` (stereo partly shown) [^68Ga-NODAGA-GSAO], the “tumor uptake SUVmax” value (tumor deposits; breast carcinoma) is reported as 2.5, the “tumor uptake SUVmax” value (tumor deposits; metastatic colorectal carcinoma) is reported as 4.4 and the “tumor uptake SUVmax” value (tumor deposits; metastatic cutaneous squamous cell carcinoma) is reported as 6.5. For the same molecule, the “tumor uptake SUVmax” value (tumor deposits; metastatic ovarian carcinoma) was 2.7, the “tumor uptake SUVmax” value (tumor deposits; squamous cell carcinoma of the oesophagus) was 5.7 and the tumor retention (tumor deposits; tumor in 4 of the 5 patients) was “prolonged retention throughout the duration of imaging”. For the same molecule, the Alpha dose ([1]; Adrenals) was 0.00E000 mSv/MBq, the Beta dose ([1]; Adrenals) was 2.13E−03 mSv/MBq and the “ED Cont.” value ([1]; Adrenals) was 2.01E−05 mSv/MBq. It also gave a Total dose ([1]; Adrenals) of 4.02E−03 mSv/MBq, an Alpha dose ([1]; Brain) of 0.00E000 mSv/MBq and a Beta dose ([1]; Brain) of 8.15E−04 mSv/MBq. The “ED Cont.” value ([1]; Brain) was 6.94E−06 mSv/MBq, the Total dose ([1]; Brain) was 1.39E−03 mSv/MBq and the Alpha dose ([1]; Breasts) was 0.00E000 mSv/MBq. The Beta dose ([1]; Breasts) was 2.13E−03 mSv/MBq, the “ED Cont.” value ([1]; Breasts) was 1.51E−04 mSv/MBq and the Total dose ([1]; Breasts) was 3.02E−03 mSv/MBq. The Alpha dose ([1]; Gallbladder Wall) was 0.00E000 mSv/MBq, the Beta dose ([1]; Gallbladder Wall) was 2.13E−03 mSv/MBq and the “ED Cont.” value ([1]; Gallbladder Wall) was 0.00E000 mSv/MBq. For the same molecule, the Total dose ([1]; Gallbladder Wall) was 4.28E−03 mSv/MBq, the Alpha dose ([1]; Heart Wall) was 0.00E000 mSv/MBq and the Beta dose ([1]; Heart Wall) was 3.09E−03 mSv/MBq. The “ED Cont.” value ([1]; Heart Wall) was 0.00E000 mSv/MBq, the Photon dose ([1]; Heart Wall) was 1.55E−03 mSv/MBq and the Total dose ([1]; Heart Wall) was 4.65E−03 mSv/MBq. For the same molecule, the Alpha dose ([1]; Kidneys) was 0.00E000 mSv/MBq, the Beta dose ([1]; Kidneys) was 2.27E−02 mSv/MBq and the “ED Cont.” value ([1]; Kidneys) was 1.31E−04 mSv/MBq. For the same molecule, the Photon dose ([1]; Kidneys) was 3.56E−03 mSv/MBq, the Total dose ([1]; Kidneys) was 2.62E−02 mSv/MBq and the Alpha dose ([1]; LLI Wall) was 0.00E000 mSv/MBq. The Beta dose ([1]; LLI Wall) was 2.13E−03 mSv/MBq, the “ED Cont.” value ([1]; LLI Wall) was 8.67E−04 mSv/MBq and the Total dose ([1]; LLI Wall) was 7.23E−03 mSv/MBq. The Alpha dose ([1]; Liver) was 0.00E000 mSv/MBq, the Beta dose ([1]; Liver) was 4.76E−03 mSv/MBq and the “ED Cont.” value ([1]; Liver) was 3.40E−04 mSv/MBq. It also gave a Photon dose ([1]; Liver) of 2.04E−03 mSv/MBq, a Total dose ([1]; Liver) of 6.80E−03 mSv/MBq and an Alpha dose ([1]; Lungs) of 0.00E000 mSv/MBq. For the same molecule, the Beta dose ([1]; Lungs) was 5.42E−03 mSv/MBq, the “ED Cont.” value ([1]; Lungs) was 8.16E−04 mSv/MBq and the Total dose ([1]; Lungs) was 6.80E−03 mSv/MBq. For the same molecule, the Alpha dose ([1]; Muscle) was 0.00E000 mSv/MBq, the “ED Cont.” value ([1]; Muscle) was 2.09E−05 mSv/MBq and the Total dose ([1]; Muscle) was 4.18E−03 mSv/MBq. The Alpha dose ([1]; Osteogenic Cells) was 0.00E000 mSv/MBq, the Beta dose ([1]; Osteogenic Cells) was 3.31E−03 mSv/MBq and the “ED Cont.” value ([1]; Osteogenic Cells) was 4.98E−05 mSv/MBq. It also gave a Total dose ([1]; Osteogenic Cells) of 4.98E−03 mSv/MBq, an Alpha dose ([1]; Ovaries) of 0.00E000 mSv/MBq and a Beta dose ([1]; Ovaries) of 2.13E−03 mSv/MBq. For the same molecule, the “ED Cont.” value ([1]; Ovaries) was 1.40E−03 mSv/MBq, the Total dose ([1]; Ovaries) was 7.02E−03 mSv/MBq and the Alpha dose ([1]; Pancreas) was 0.00E000 mSv/MBq. For the same molecule, the Beta dose ([1]; Pancreas) was 3.87E−03 mSv/MBq, the “ED Cont.” value ([1]; Pancreas) was 2.95E−05 mSv/MBq and the Total dose ([1]; Pancreas) was 5.90E−03 mSv/MBq. For the same molecule, the Alpha dose ([1]; Red Marrow) was 0.00E000 mSv/MBq, the Beta dose ([1]; Red Marrow) was 1.49E−03 mSv/MBq and the “ED Cont.” value ([1]; Red Marrow) was 4.05E−04 mSv/MBq. It also gave a Total dose ([1]; Red Marrow) of 3.38E−03 mSv/MBq, an Alpha dose ([1]; Skin) of 0.00E000 mSv/MBq and a Beta dose ([1]; Skin) of 2.13E−03 mSv/MBq. For the same molecule, the “ED Cont.” value ([1]; Skin) was 3.19E−05 mSv/MBq, the Total dose ([1]; Skin) was 3.19E−03 mSv/MBq and the Alpha dose ([1]; Small Intestine) was 0.00E000 mSv/MBq. For the same molecule, the Beta dose ([1]; Small Intestine) was 5.18E−03 mSv/MBq, the “ED Cont.” value ([1]; Small Intestine) was 4.10E−05 mSv/MBq and the Photon dose ([1]; Small Intestine) was 3.03E−03 mSv/MBq. For the same molecule, the Total dose ([1]; Small Intestine) was 8.21E−03 mSv/MBq, the Alpha dose ([1]; Spleen) was 0.00E000 mSv/MBq and the Beta dose ([1]; Spleen) was 4.05E−03 mSv/MBq. For the same molecule, the “ED Cont.” value ([1]; Spleen) was 2.95E−05 mSv/MBq, the Total dose ([1]; Spleen) was 5.91E−03 mSv/MBq and the Alpha dose ([1]; Stomach Wall) was 0.00E000 mSv/MBq. The Beta dose ([1]; Stomach Wall) was 2.61E−03 mSv/MBq, the “ED Cont.” value ([1]; Stomach Wall) was 5.06E−04 mSv/MBq and the Photon dose ([1]; Stomach Wall) was 1.61E−03 mSv/MBq. It also gave a Total dose ([1]; Stomach Wall) of 4.22E−03 mSv/MBq, an Alpha dose ([1]; Testes) of 0.00E000 mSv/MBq and a Beta dose ([1]; Testes) of 2.21E−03 mSv/MBq. For the same molecule, the “ED Cont.” value ([1]; Testes) was 0.00E000 mSv/MBq, the Total dose ([1]; Testes) was 5.69E−03 mSv/MBq and the Alpha dose ([1]; Thymus) was 0.00E000 mSv/MBq. For the same molecule, the Beta dose ([1]; Thymus) was 4.48E−03 mSv/MBq, the “ED Cont.” value ([1]; Thymus) was 2.92E−05 mSv/MBq and the Total dose ([1]; Thymus) was 5.84E−03 mSv/MBq. The Alpha dose ([1]; Thyroid) was 0.00E000 mSv/MBq, the Beta dose ([1]; Thyroid) was 2.13E−03 mSv/MBq and the “ED Cont.” value ([1]; Thyroid) was 1.64E−04 mSv/MBq. It also gave a Total dose ([1]; Thyroid) of 3.28E−03 mSv/MBq, an Alpha dose ([1]; Total Body) of 0.00E000 mSv/MBq and a Beta dose ([1]; Total Body) of 2.68E−03 mSv/MBq. The “ED Cont.” value ([1]; Total Body) was 0.00E000 mSv/MBq, the Total dose ([1]; Total Body) was 4.61E−03 mSv/MBq and the Alpha dose ([1]; ULI Wall) was 0.00E000 mSv/MBq. For the same molecule, the Beta dose ([1]; ULI Wall) was 2.53E−03 mSv/MBq, the “ED Cont.” value ([1]; ULI Wall) was 2.58E−05 mSv/MBq and the Photon dose ([1]; ULI Wall) was 2.63E−03 mSv/MBq. It also gave a Total dose ([1]; ULI Wall) of 5.18E−03 mSv/MBq, an Alpha dose ([1]; Urinary Bladder Wall) of 0.00E000 mSv/MBq and a Beta dose ([1]; Urinary Bladder Wall) of 2.84E−01 mSv/MBq. The “ED Cont.” value ([1]; Urinary Bladder Wall) was 1.62E−02 mSv/MBq, the Total dose ([1]; Urinary Bladder Wall) was 3.24E−01 mSv/MBq and the Alpha dose ([1]; Uterus) was 0.00E000 mSv/MBq. For the same molecule, the Beta dose ([1]; Uterus) was 2.13E−03 mSv/MBq, the “ED Cont.” value ([1]; Uterus) was 5.77E−05 mSv/MBq and the Total dose ([1]; Uterus) was 1.15E−02 mSv/MBq. For the same molecule, the “dose to urinary bladder wall (dose limiting organ)” value [1] was 0.32 mSv/MBq, the “whole body effective dose” value [1] was 2.13E-02 mSv/MBq and 0.021 mSv/MBq and the “whole body effective dose” value ([1]; injected activity 150 MBq) was 3.2 mSv. The adverse events (Human studies: safety) was “no related or unrelated serious adverse events or adverse events; also recorded: safe, well-tolerated and without adverse effects”.

From patent publication US20250269072A1, “PROCESSES FOR PREPARING RADIOLABELLED CONJUGATES” (CENTENARY INSTITUTE OF CANCER MEDICINE AND CELL BIOLOGY, priority 2021, published 2025)
